Source: article PMC3416781, “Functional Characterizations of Chemosensory Proteins of the Alfalfa Plant Bug Adelphocoris lineolatus Indicate Their Involvement in Host Recognition” (PLoS ONE, 2012)
Entries after “also recorded” stand apart in the source; their conditions may differ.

Experiments:
AlinCSP1 [1] = molecular target: T1, AlinCSP1 (Adelphocoris lineolatus, UniProt J7EJ71); assay: biochemical; format: binding; details: for Ki: Figure 7B legend
Protocol: (§1) Fluorescence binding assays were performed on an F-380 fluorescence spectrophotometer (Tianjin, China) in a 1 cm light path quartz cuvette. The slit width used for excitation and emission was both 10 nm. The fluorescent probe N-phenyl-1-naphthylamine (1-NPN) was dissolved in methanol with a 1 mM stock solution. 1-NPN was excited at 337 nm and emission spectra were recorded between 390 nm and 530 nm.
(§2) All values reported were obtained from three independent measurements.
(§3) For determining binding constants, the intensity values corresponding to the maximum fluorescence emission were plotted against free ligand concentration. Bound ligand was evaluated from the values of fluorescence intensity assuming the protein was 100% active, with a stoichiometry of 1∶1 protein:ligand at saturation. The curves were linearized using Scatchard Plot.

AlinCSP2 [2] = molecular target: T2, AlinCSP2 (Adelphocoris lineolatus, UniProt E7BLG5); assay: biochemical; format: binding; details: for Ki: Figure 7B legend
T2 sequence (E7BLG5 entry or part of it): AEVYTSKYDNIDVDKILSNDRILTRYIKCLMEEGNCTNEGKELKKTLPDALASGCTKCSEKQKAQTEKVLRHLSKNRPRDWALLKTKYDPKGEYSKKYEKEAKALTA
Protocol: as §1, §2, §3

AlinCSP3 [3] = molecular target: T3, AlinCSP3 (Adelphocoris lineolatus, UniProt E7BLG4); assay: biochemical; format: binding; details: for Ki: Figure 7B legend
T3 sequence (E7BLG4 entry or part of it): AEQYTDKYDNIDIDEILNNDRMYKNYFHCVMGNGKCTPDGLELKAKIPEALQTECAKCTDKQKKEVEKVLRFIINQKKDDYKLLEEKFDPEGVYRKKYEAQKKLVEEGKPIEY
Protocol: as §1, §2, §3

AlinCSP1-3 = assay: Fluorescence competitive binding assay, statements for the three CSPs together; parameters: species or system Adelphocoris lineolatus
Protocol: as §1, §2
as §3, with “Plot. Dissociation constants of the competitors were calculated from the corresponding IC50 values, using the equation: KD = [IC50]/(1+[1-NPN]/K1-NPN), where [1-NPN] is the free concentration of 1-NPN and K1-NPN is the dissociation constant of the AlinCSP1-3/1-NPN complex.” for “Plot.”

A. lineolatus antennae = assay: Electroantennogram (EAG) recordings; parameters: species or system Adelphocoris lineolatus; details: normalized to 2-octanone; for EAG response in words: male and female adult antennae, 10% (v/v) in paraffin oil, good ligand = more than 50% of 2-octanone response; for EAG response, male versus female antennae: Student t-test between sexes
From the text: Electrophysiological (EAG) recordings from each sex of adult individuals were made using Ag-AgCl glass pipette electrodes filled with 3 M KCl solution [69], [70]. The insects were anaesthetized by chilling, the antenna was amputated at the base and the tip of the antenna was cut off. The excised antenna was mounted between the electrodes by one teardrop of Spectra R360 electrically conductive gel (Syntech, Netherlands). The base of the antenna was connected to the reference electrode, while the terminal of tip-cut off antenna was connected to the recording electrode. An air stimulus controller CS-55 (Syntech, Netherlands) was used for air and chemical stimulants delivery with a constant flow of 10 ml/second flowed continuously over the antenna through the open end of the glass tube, which was positioned 1 cm from the antenna.
Twenty microliters of tested chemicals (100 µl/ml, 10% (v/v) dilution in paraffin oil except the hexadecanoic acid dissolved in hexane with 100 µg/ml) were applied to filter paper strips (1.5 cm×4 cm, Whatman No.1), and the solvent was allowed to evaporate for 30 sec before the paper strip was inserted into the glass Pasteur pipette cartridge (10 cm long, Fisher Scientific, Pittsburgh, Pennsylvania, USA). The chemicals were tested randomly, stimulus duration time was 0.5 second and an interval of at least 30 seconds was taken between stimulations for antennal recovery. Chemical odorants used for the EAG recordings are the same as used in the binding assays. […] The paraffin oil (Fluka, Buchs, Switzerland) was used to dissolve the chemicals and treated as control compound [71]. Each chemical was tested against six individual male and female antennae, and each antenna was tested three times. The signals were passed through a high impedance amplifier (CS-05 model, Syntech, the Netherlands), EAG responses were initially measured in millivolts (peak height of depolarization) and then converted to normalized responses by the Syntech EAG 2000 program (Syntech, the Netherlands). Response to the solvent control was subtracted from all normalized response and the normalized EAG responses were expressed as a percentage to the reference compound response. All results are presented as mean (±SE) normalized EAG responses. EAG responses between male and female individuals were compared with the Student t-test using SAS software.

AlinCSP1 [4] = molecular target: T1, AlinCSP1; assay: Binding of fluorescent probe 1-NPN to AlinCSP1 (titration, Scatchard plot); details: 2 µM protein, 1-NPN 2-16 µM, read-out: dissociation constant of the AlinCSP1/1-NPN complex
Protocol: as §1, §2
as §3, with “Plot. Dissociation constants of the competitors were calculated from the corresponding IC50 values, using the equation: KD = [IC50]/(1+[1-NPN]/K1-NPN), where [1-NPN] is the free concentration of 1-NPN and K1-NPN is the dissociation constant of the AlinCSP1-3/1-NPN complex.” for “Plot.”

AlinCSP2 [5] = molecular target: T2, AlinCSP2; assay: Binding of fluorescent probe 1-NPN to AlinCSP2 (titration, Scatchard plot); details: 2 µM protein, 1-NPN 2-16 µM, read-out: dissociation constant of the AlinCSP2/1-NPN complex
Protocol: as §1, §2
as §3, with “Plot. Dissociation constants of the competitors were calculated from the corresponding IC50 values, using the equation: KD = [IC50]/(1+[1-NPN]/K1-NPN), where [1-NPN] is the free concentration of 1-NPN and K1-NPN is the dissociation constant of the AlinCSP1-3/1-NPN complex.” for “Plot.”

AlinCSP3 [6] = molecular target: T3, AlinCSP3; assay: Binding of fluorescent probe 1-NPN to AlinCSP3 (titration, Scatchard plot); details: 2 µM protein, 1-NPN 2-16 µM, read-out: dissociation constant of the AlinCSP3/1-NPN complex
Protocol: as §1, §2
as §3, with “Plot. Dissociation constants of the competitors were calculated from the corresponding IC50 values, using the equation: KD = [IC50]/(1+[1-NPN]/K1-NPN), where [1-NPN] is the free concentration of 1-NPN and K1-NPN is the dissociation constant of the AlinCSP1-3/1-NPN complex.” for “Plot.”

[7] = u.d. = KD not calculated because IC50>50 µM, read-out: KD (µM) AlinCSP1, given as u.d.
[8] = u.d. = KD not calculated because IC50>50 µM, read-out: KD (µM) AlinCSP2, given as u.d.
[9] = u.d. = KD not calculated because IC50>50 µM, read-out: KD (µM) AlinCSP3, given as u.d.
[10] = 1-NPN and protein at 2 µM, 50 mM Tris-HCl pH 7.4, KD calculated from IC50, mean of three measurements, read-out: KD (µM) AlinCSP1
[11] = 1-NPN and protein at 2 µM, 50 mM Tris-HCl pH 7.4, KD calculated from IC50, mean of three measurements, read-out: KD (µM) AlinCSP2
[12] = 1-NPN and protein at 2 µM, 50 mM Tris-HCl pH 7.4, KD calculated from IC50, mean of three measurements, read-out: KD (µM) AlinCSP3
[13] = KD (µM) AlinCSP1, 1-NPN and protein at 2 µM, 50 mM Tris-HCl pH 7.4, KD calculated from IC50, mean of three measurements
[14] = KD (µM) AlinCSP2, 1-NPN and protein at 2 µM, 50 mM Tris-HCl pH 7.4, KD calculated from IC50, mean of three measurements
[15] = KD (µM) AlinCSP3, 1-NPN and protein at 2 µM, 50 mM Tris-HCl pH 7.4, KD calculated from IC50, mean of three measurements

T1 sequence (J7EJ71 entry or part of it): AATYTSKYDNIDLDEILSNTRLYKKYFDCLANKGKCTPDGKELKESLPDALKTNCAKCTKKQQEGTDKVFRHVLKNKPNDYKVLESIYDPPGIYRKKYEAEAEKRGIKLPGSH

| Compound | Kd (AlinCSP2 [2]; [8]) | Kd (AlinCSP3 [3]; [9]) | EAG response in words (A. lineolatus antennae) | Kd (AlinCSP1 [1]; [10]) | EAG response, male versus female antennae (A. lineolatus antennae) | Kd (AlinCSP3 [3]; [12]) | also measured |
| --- | --- | --- | --- | --- | --- | --- | --- |
| CCCC(=O)OCC [Ethyl butyrate] | > 50 µM | > 50 µM | elicited significant antennal responses from both male and female; also recorded: elicited high EAG responses |  |  |  | Ki (AlinCSP1 [1]): 95.2 µM; Kd (AlinCSP1 [1]; [7]): > 50 µM; Ki (AlinCSP2 [2]): 92.5 µM; Ki (AlinCSP3 [3]): 101 µM; binding to the three CSPs in words (AlinCSP1-3): failed to bind with any of the three CSPs |
| CCCCCCCCCCCCCCCC(=O)O [hexadecanoic acid] | > 50 µM | > 50 µM | did not elicit notably EAG responses |  |  |  | Ki (AlinCSP1 [1]): 118 µM; Kd (AlinCSP1 [1]; [7]): > 50 µM; Ki (AlinCSP2 [2]): 137 µM; IC50 (AlinCSP1-3; displacement of 1-NPN, all three CSPs): > 50 µM |
| CCC/C=C/COC(=O)CCC [(E)-2-Hexenyl butyrate] | > 50 µM | > 50 µM | elicited significant antennal responses from both male and female; also recorded: elicited high EAG responses |  |  |  | Kd (AlinCSP1 [1]; [7]): > 50 µM; Ki (AlinCSP2 [2]): 113 µM; Ki (AlinCSP3 [3]): 148 µM; binding to the three CSPs in words (AlinCSP1-3): failed to bind with any of the three CSPs |
| CCCCCCCCCCC [Undecane] |  | > 50 µM |  | 38.4 ± 1.54 µM | significantly higher EAG responses from male antennae than from female antennae |  | Kd (AlinCSP2 [2]; [11]): 39.6 ± 2.36 µM |
| CCCCC(C)O (centres unmarked) [2-Hexanol] | > 50 µM |  |  | 45.4 ± 2.43 µM | significantly higher EAG responses from female antennae than from male antennae | 37.1 ± 1.01 µM |  |
| CCCCCCCCCC [decane] |  |  |  | 44.6 ± 0.75 µM | significantly higher EAG responses from female antennae than from male antennae | 47.2 ± 1.18 µM | Kd (AlinCSP2 [2]; [11]): 46.4 ± 0.82 µM |
| C=CC(=C)CCC=C(C)C [Myrcene] |  |  | failed to elicit high EAG response | 5.42 ± 0.93 µM |  | 10.7 ± 1.64 µM | Kd (AlinCSP2 [2]; [11]): 13 ± 1.72 µM |
| c1ccc(Nc2cccc3ccccc23)cc1 [1-NPN, N-phenyl-1-naphthylamine] |  |  |  |  |  |  | Kd (AlinCSP1 [4]): 1.83 µM; Kd (AlinCSP2 [5]): 1.92 µM; Kd (AlinCSP3 [6]): 4.45 µM |
| CCCCCCCC [Octane] |  |  |  | 42.1 ± 1.42 µM | significantly higher EAG responses from male antennae than from female antennae | 45.4 ± 1.54 µM | Kd (AlinCSP2 [2]; [11]): 44.4 ± 1.36 µM |
| C/C1=C\CC/C(C)=C/CC(C)(C)/C=C/C1 [α-Humulene] | > 50 µM |  | no notable EAG response | 9.96 ± 0.89 µM |  | 8.94 ± 2.97 µM | binding to AlinCSP2 in words (AlinCSP2 [2]): failed to bind with AlinCSP2 |
| Cc1ccc(C=O)cc1C [3,4-Dimethyl-benzaldehe, 3,4-Dimethyl-benzaldehyde] | > 50 µM | > 50 µM |  |  | significantly higher EAG responses from female antennae than from male antennae |  | Kd (AlinCSP1 [1]; [7]): > 50 µM |
| C=C1CCC2CC1C2(C)C (stereo not drawn) [β-Pinene] |  |  | failed to elicit high EAG response |  |  |  | Kd (AlinCSP1 [1]; [13]): 7.07 ± 1.41 µM; Kd (AlinCSP2 [2]; [14]): 11.1 ± 1.91 µM; Kd (AlinCSP3 [3]; [15]): 12.4 ± 2.09 µM |
| C=C1CC/C=C(\C)CC[C@@H]2[C@@H]1CC2(C)C [β-Caryophyllene] |  |  | no notable EAG response |  |  |  | Kd (AlinCSP1 [1]; [13]): 9.22 ± 1.08 µM; binding to AlinCSP2 in words (AlinCSP2 [2]): failed to bind with AlinCSP2; Kd (AlinCSP2 [2]; KD (µM) AlinCSP2, given as u.d., u.d. = KD not calculated because IC50>50 µM): > 50 µM; Kd (AlinCSP3 [3]; [15]): 12.3 ± 2.42 µM |
| CCCCC(C)=O [2-Hexanone] |  |  |  |  | significantly higher EAG responses from male antennae than from female antennae |  | Kd (AlinCSP1 [1]; [13]): 19.5 ± 1.73 µM; Kd (AlinCSP2 [2]; [14]): 20.4 ± 1.82 µM; Kd (AlinCSP3 [3]; [15]): 22.5 ± 1.88 µM |
| COC(=O)c1ccccc1O [Methyl salicylate] |  |  | failed to elicit high EAG response |  |  |  | Kd (AlinCSP1 [1]; [13]): 8.67 ± 1.92 µM; Kd (AlinCSP2 [2]; [14]): 13.3 ± 1.71 µM; Kd (AlinCSP3 [3]; [15]): 11.8 ± 1.89 µM |
